# Data reported in patent US20150011466A1, “APJ Receptor Compounds” (priority 2012, published 2015).
# Where two headings read alike, the source gives them in different places. Where a SMILES comes first, the peptide text is derived from it. [ ]: non-standard residue; d: D form. The star is where a group is joined. Palmitoyl = CCCCCCCCCCCCCCCC(=O)*
# Tests used:
# [1] = target: T1, APJ receptor (Homo sapiens, UniProt P35414); assay: HTRF cAMP assay, inhibition of NKH477 stimulated cAMP in Human TRex cells expressing APJ upon doxycycline induction (APJ-hTREX); assay type: cell-based; details: for Ranking: class combining EC50 and % histamine; for percent intrinsic activity at 0.3 µM: read-out: % IA (@ 300 nM)
# T1 construct: expressed in transfected cells; host or cells: Human TRex cells (doxycycline-inducible)
# T1 sequence (P35414 1-380): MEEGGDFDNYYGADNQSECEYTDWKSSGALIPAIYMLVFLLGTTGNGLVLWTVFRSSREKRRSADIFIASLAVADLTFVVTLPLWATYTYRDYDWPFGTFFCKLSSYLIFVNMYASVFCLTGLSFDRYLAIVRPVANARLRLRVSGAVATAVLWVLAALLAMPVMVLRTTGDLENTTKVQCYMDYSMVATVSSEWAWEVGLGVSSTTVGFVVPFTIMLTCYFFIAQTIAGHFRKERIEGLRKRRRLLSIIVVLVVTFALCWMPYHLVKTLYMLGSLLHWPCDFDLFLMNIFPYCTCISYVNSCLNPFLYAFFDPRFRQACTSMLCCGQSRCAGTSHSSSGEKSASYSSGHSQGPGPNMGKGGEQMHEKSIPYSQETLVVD
# Procedure, shortened: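 Cells stimulated with NKH477 and cAMP measured by HTRF competitive immunoassay (cryptate anti-cAMP antibody, d2-labeled cAMP). APJ-hTREX cells induced with […] doxycycline and seeded overnight at 40 k/well.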
# [2] = Histimine (% vs. 48/40)
# [3] = inhibition of NKH477 stimulated cAMP, APJ-hTREX cells, read-out: APJ-hTREX EC50
Compound,EC50 [1] [nM],Ranking [1],percent intrinsic activity at 0.3 µM [1] [%],Histimine (% vs. 48/40) [2] [%],"EC50 [1, 3] [nM]"
CCCCCCCCCCCCCCCC(=O)N[C@@H](CC(=O)O)C(=O)N[C@H](C(=O)N[C@@H](Cc1ccccc1)C(=O)N[C@@H](CCCNC(=N)N)C(=O)N[C@@H](CO)C(=O)N[C@@H](CO)C(=O)N[C@@H](CCC(=O)O)C(=O)N[C@H](CCCCN)C(=O)N[C@@H](CCCNC(=N)N)C(=O)N[C@@H](CCCNC(=N)N)C(=O)N[C@@H](CO)C(=O)N[C@@H](C)C(=O)N[C@@H](CC(=O)O)C(=O)N[C@H](C(=O)N[C@@H](Cc1ccccc1)C(=O)N[C@H](C(N)=O)[C@@H](C)CC)[C@@H](C)CC)C(C)C [Compound 33] (Palmitoyl-DVFRSSE[dK]RRSADIFI-NH2; C-terminus assumed),107,**** (EC50 101-500 nM and % histamine<35%),61,11,
CCCCCCCCCCCCCCCC(=O)N[C@H](C(=O)N[C@H](C(=O)N[C@@H](CC(=O)O)C(=O)N[C@@H](CCCNC(=N)N)C(=O)N[C@@H](CO)C(=O)N[C@@H](CO)C(=O)N[C@@H](CCC(=O)O)C(=O)N[C@H](CCCCN)C(=O)N[C@@H](CCCNC(=N)N)C(=O)N[C@@H](CCCNC(=N)N)C(=O)N[C@@H](CO)C(=O)N[C@@H](C)C(=O)N[C@@H](CC(=O)O)C(=O)N[C@H](C(=O)N[C@@H](Cc1ccccc1)C(=O)N[C@H](C(N)=O)[C@@H](C)CC)[C@@H](C)CC)C(C)C)[C@@H](C)O [Compound 35] (Palmitoyl-TVDRSSE[dK]RRSADIFI-NH2; C-terminus assumed),142,**** (EC50 101-500 nM and % histamine<35%),70,4,
CCCCCCCCCCCCCCCC(=O)N[C@H](C(=O)N[C@H](C(=O)N[C@@H](Cc1ccccc1)C(=O)N[C@@H](CCCNC(=N)N)C(=O)N[C@@H](CO)C(=O)N[C@@H](CO)C(=O)N[C@@H](CCC(=O)O)C(=O)N[C@H](CCCCN)C(=O)N[C@@H](CCCNC(=N)N)C(=O)N[C@@H](CCCNC(=N)N)C(=O)N[C@@H](CC(=O)O)C(=O)N[C@@H](C)C(=O)N[C@@H](CC(=O)O)C(=O)N[C@H](C(=O)N[C@@H](Cc1ccccc1)C(=O)N[C@H](C(N)=O)[C@@H](C)CC)[C@@H](C)CC)C(C)C)[C@@H](C)O [Compound 38] (Palmitoyl-TVFRSSE[dK]RRDADIFI-NH2; C-terminus assumed),,* (EC50>500 nM and % histamine>35%),46,13,732
CCCCCCCCCCCCCCCC(=O)N[C@H](C(=O)N[C@H](C(=O)N[C@@H](Cc1ccccc1)C(=O)N[C@@H](CCCNC(=N)N)C(=O)N[C@@H](CO)C(=O)N[C@@H](CO)C(=O)N[C@@H](CCC(=O)O)C(=O)N[C@H](CCCCN)C(=O)N[C@@H](CCCNC(=N)N)C(=O)N[C@@H](CCCNC(=N)N)C(=O)N[C@@H](CO)C(=O)N[C@@H](CC(=O)O)C(=O)N[C@@H](CC(=O)O)C(=O)N[C@H](C(=O)N[C@@H](Cc1ccccc1)C(=O)N[C@H](C(N)=O)[C@@H](C)CC)[C@@H](C)CC)C(C)C)[C@@H](C)O [Compound 39] (Palmitoyl-TVFRSSE[dK]RRSDDIFI-NH2),,,27,8,
CCCCCCCCCCCCCCCC(=O)N[C@H](C(=O)N[C@H](C(=O)N[C@@H](Cc1ccccc1)C(=O)N[C@@H](CCCNC(=N)N)C(=O)N[C@@H](CO)C(=O)N[C@@H](CO)C(=O)N[C@@H](CCC(=O)O)C(=O)N[C@H](CCCCN)C(=O)N[C@@H](CCCNC(=N)N)C(=O)N[C@@H](CCCNC(=N)N)C(=O)N[C@@H](CO)C(=O)N[C@@H](C)C(=O)N[C@@H](CC(=O)O)C(=O)N[C@@H](CC(=O)O)C(=O)N[C@@H](Cc1ccccc1)C(=O)N[C@H](C(N)=O)[C@@H](C)CC)C(C)C)[C@@H](C)O [Compound 40] (Palmitoyl-TVFRSSE[dK]RRSADDFI-NH2; C-terminus assumed),,*** (EC50<100 nM and % histamine>35%),71,46,48.2
CCCCCCCCCCCCCCCC(=O)N[C@H](C(=O)N[C@H](C(=O)N[C@@H](Cc1ccccc1)C(=O)N[C@@H](CCCNC(=N)N)C(=O)N[C@@H](CO)C(=O)N[C@@H](CO)C(=O)N[C@@H](CCC(=O)O)C(=O)N[C@H](CCCCN)C(=O)N[C@@H](CCCNC(=N)N)C(=O)N[C@@H](CCCNC(=N)N)C(=O)N[C@@H](CO)C(=O)N[C@@H](C)C(=O)N[C@@H](CC(=O)O)C(=O)N[C@H](C(=O)N[C@@H](Cc1ccccc1)C(=O)N[C@@H](CC(=O)O)C(N)=O)[C@@H](C)CC)C(C)C)[C@@H](C)O [Compound 41] (Palmitoyl-TVFRSSE[dK]RRSADIFD-NH2),,,60,48,
CCCCCCCCCCCCCCCC(=O)N[C@H](C(=O)N[C@H](C(=O)N[C@@H](Cc1ccccc1)C(=O)N1CCC[C@H]1C(=O)N[C@@H](CO)C(=O)N[C@@H](CO)C(=O)N[C@@H](CCC(=O)O)C(=O)N[C@H](CCCCN)C(=O)N[C@@H](CCCNC(=N)N)C(=O)N[C@@H](CCCNC(=N)N)C(=O)N[C@@H](CO)C(=O)N[C@@H](C)C(=O)N[C@@H](CC(=O)O)C(=O)N[C@H](C(=O)N[C@@H](Cc1ccccc1)C(=O)N[C@H](C(N)=O)[C@@H](C)CC)[C@@H](C)CC)C(C)C)[C@@H](C)O [Compound 44] (Palmitoyl-TVFPSSE[dK]RRSADIFI-NH2; C-terminus assumed),111,**** (EC50 101-500 nM and % histamine<35%),74,7,
CCCCCCCCCCCCCCCC(=O)N[C@H](C(=O)N[C@H](C(=O)N[C@@H](Cc1ccccc1)C(=O)N[C@@H](CCCNC(=N)N)C(=O)N[C@@H](CO)C(=O)N[C@@H](CO)C(=O)N1CCC[C@H]1C(=O)N[C@H](CCCCN)C(=O)N[C@@H](CCCNC(=N)N)C(=O)N[C@@H](CCCNC(=N)N)C(=O)N[C@@H](CO)C(=O)N[C@@H](C)C(=O)N[C@@H](CC(=O)O)C(=O)N[C@H](C(=O)N[C@@H](Cc1ccccc1)C(=O)N[C@H](C(N)=O)[C@@H](C)CC)[C@@H](C)CC)C(C)C)[C@@H](C)O [Compound 47] (Palmitoyl-TVFRSSP[dK]RRSADIFI-NH2; C-terminus assumed),13.3,*** (EC50<100 nM and % histamine>35%),83,60,
CCCCCCCCCCCCCCCC(=O)N[C@H](C(=O)N[C@H](C(=O)N[C@@H](Cc1ccccc1)C(=O)N[C@@H](CCCNC(=N)N)C(=O)N[C@@H](CO)C(=O)N[C@@H](CO)C(=O)N[C@@H](CCC(=O)O)C(=O)N1CCC[C@H]1C(=O)N[C@@H](CCCNC(=N)N)C(=O)N[C@@H](CCCNC(=N)N)C(=O)N[C@@H](CO)C(=O)N[C@@H](C)C(=O)N[C@@H](CC(=O)O)C(=O)N[C@H](C(=O)N[C@@H](Cc1ccccc1)C(=O)N[C@H](C(N)=O)[C@@H](C)CC)[C@@H](C)CC)C(C)C)[C@@H](C)O [Compound 48] (Palmitoyl-TVFRSSEPRRSADIFI-NH2; C-terminus assumed),,* (EC50>500 nM and % histamine>35%),78,5,3350
CCCCCCCCCCCCCCCC(=O)N[C@H](C(=O)N[C@H](C(=O)N[C@@H](Cc1ccccc1)C(=O)N[C@@H](CCCNC(=N)N)C(=O)N[C@@H](CO)C(=O)N[C@@H](CO)C(=O)N[C@@H](CCC(=O)O)C(=O)N[C@H](CCCCN)C(=O)N[C@@H](CCCNC(=N)N)C(=O)N1CCC[C@H]1C(=O)N[C@@H](CO)C(=O)N[C@@H](C)C(=O)N[C@@H](CC(=O)O)C(=O)N[C@H](C(=O)N[C@@H](Cc1ccccc1)C(=O)N[C@H](C(N)=O)[C@@H](C)CC)[C@@H](C)CC)C(C)C)[C@@H](C)O [Compound 50] (Palmitoyl-TVFRSSE[dK]RPSADIFI-NH2),,,41,16,
CCCCCCCCCCCCCCCC(=O)N[C@H](C(=O)N[C@H](C(=O)N[C@@H](Cc1ccccc1)C(=O)N[C@@H](CCCNC(=N)N)C(=O)N[C@@H](CO)C(=O)N[C@@H](CO)C(=O)N[C@@H](CCC(=O)O)C(=O)N[C@H](CCCCN)C(=O)N[C@@H](CCCNC(=N)N)C(=O)N[C@@H](CCCNC(=N)N)C(=O)N1CCC[C@H]1C(=O)N[C@@H](C)C(=O)N[C@@H](CC(=O)O)C(=O)N[C@H](C(=O)N[C@@H](Cc1ccccc1)C(=O)N[C@H](C(N)=O)[C@@H](C)CC)[C@@H](C)CC)C(C)C)[C@@H](C)O [Compound 51] (Palmitoyl-TVFRSSE[dK]RRPADIFI-NH2),,,60,63,
CCCCCCCCCCCCCCCC(=O)N[C@H](C(=O)N[C@H](C(=O)N[C@@H](Cc1ccccc1)C(=O)N[C@@H](CCCNC(=N)N)C(=O)N[C@@H](CO)C(=O)N[C@@H](CO)C(=O)N[C@@H](CCC(=O)O)C(=O)N[C@H](CCCCN)C(=O)N[C@@H](CCCNC(=N)N)C(=O)N[C@@H](CCCNC(=N)N)C(=O)N[C@@H](CO)C(=O)N1CCC[C@H]1C(=O)N[C@@H](CC(=O)O)C(=O)N[C@H](C(=O)N[C@@H](Cc1ccccc1)C(=O)N[C@H](C(N)=O)[C@@H](C)CC)[C@@H](C)CC)C(C)C)[C@@H](C)O [Compound 52] (Palmitoyl-TVFRSSE[dK]RRSPDIFI-NH2),,,45,75,
